Results as given in patent US20110287432A1, “SYSTEM AND METHOD FOR TAILORING NUCLEOTIDE CONCENTRATION TO ENZYMATIC EFFICIENCIES IN DNA SEQUENCING TECHNOLOGIES” (454 Life Science Corporation, priority 2010, published 2011).

Assays:
apyrase = assay: Enzyme kinetics of apyrase across multiple nucleotides (Michaelis-Menten); type: biochemical; settings: for Km: Michaelis constant of apyrase for the nucleotide species; for VApy-dNTP (estimated apyrase activity): Michaelis-Menten calculation, dTTP, α-thio-dATP, dCTP, dGTP at 40.3, 166.1, 16.3, 19.7 μM; for Vmax: maximum rate of apyrase for the nucleotide species; for Apyrase activity ratio: normalized to the value of dCTP
From the text: The nucleotide species specific steady-state apyrase concentration may be computed using what is referred to as the Michaelis-Menten kinetics to mathematically approximate the kinetic characteristics of an enzyme based upon the assumption that simple kinetic conditions exist. The Michaelis-Menten equation uses constant values that vary by nucleotide species and include the Michaelis constant KM and the maximum rate Vmax of enzyme activity in a reaction environment.
In the present example, apyrase is effectively exposed to only one type of nucleotide species at a given time due to the iterative nature of the sequencing reagent flows. The reaction rates between apyrase and each nucleotide species can be estimated using the following formula: […]
where [dNTP] is the concentration of dTTP, dATP, dCTP or dGTP.
Continuing with the present example, the nucleotide species concentrations used for the computation for dTTP, α-thio-dATP, dCTP and dGTP are 40.3, 166.1, 16.3 and 19.7 μM respectively in the reaction environment. It will be appreciated that the concentration value for α-thio-dATP is substantially higher than the concentrations of the other nucleotide species which is due to the modification that has an inhibitory effect upon the incorporation efficiency of a polymerase enzyme (i.e. thus a higher concentration improves the likelihood of polymerase incorporation) as well as an increased processing efficiency of the apyrase as illustrated in greater detail below. In some embodiments the more “natural” dATP species may be used in place of α-thio-dATP and may have a different value for nucleotide species concentration reflecting the higher efficiency of enzyme processing for that species. The estimated activities of apyrase from the Michaelis-Menten calculation towards the different nucleotide species are shown in the Table 2 below. It should again be noted that the calculated efficiency of apyrase to α-thio-dATP illustrated in Table 2 is substantially higher than for the other species and thus apyrase would be expected to process a higher concentration of α-thio-dATP in an efficient manner.

polymerase and apyrase = assay: Sequencing of C. jejuni shotgun libraries, nucleotide-specific CAFIE fit of raw reads; type: biochemical; settings: average over 200 reads
From the text: In the present example, DNA Shotgun libraries of the genome C. jejuni were sequenced to calculate the nucleotide species concentrations optimized for polymerase and apyrase efficiencies. The second (TA) and the third (CG) columns of Table 4 show the relative percentage of T and A to C and G nucleotide species concentrations used in sequencing runs where a value for the 100% concentration may be based upon the calculated and normalized species relative ratio values from Table 3. For instance, using the figures from Table 3 100% of the G nucleotide species is 1.2 times greater the 100% of the C nucleotide species given the concentration ratio. Those of ordinary skill in the art will appreciate that C. jejuni is an AT rich genome generally meaning that there is a higher incidence of A and T nucleotide species in the genome composition than C and G nucleotide species. Thus, the relative percentages for TA and GC concentrations illustrated in FIG. 4 reflect that fact and typically would be different for a GC rich genome (i.e. the genome of T. thermophilus).
The average completion efficiency (i.e. to estimate incomplete extension) and carry forward values of each individual nucleotide species were inferred using a method described in detail below. The last column presents the average read lengths (RL) of the high quality reads obtained where increased read length correlates to an increased level of optimization of the combination of each nucleotide species concentration that is balanced for the species specific incorporation efficiency of polymerase to degradation efficiency of apyrase.
The average completion efficiencies and carry forward values of the individual nucleotide species were inferred using nucleotide-specific CAFIE (carry forward and incompletion extension) fit. For example, the sequencing process produces raw sequence reads typically processed by an embodiment of Image and Signal Processing software such as application 135. In the present example, application 135 maps (also referred to as an alignment by those of ordinary skill in the art) the raw sequence reads generated to a reference genome sequence associated with the samples sequenced, such as a consensus reference sequence of C. jejuni. As will be evident to those of ordinary skill, mapping/aligning the raw uncorrected sequence reads to a reference sequence can be employed to determine where CAFIE error occurs and determination of incidence of nucleotide species specific CAFIE error.
In the presently described example application 135 mapped 200 uncorrected sequence reads, represented as flowgrams, to the reference genome sequence and the first 100 iterations of the nucleotide flows considered for determination of optimal concentration of each of the nucleotide species by inferring the completion efficiencies and carry forward values. The detected signal strengths of each of the four nucleotide species were first normalized using the median 1-mer value for all nucleotide species. The term “1-mer value” as used herein generally refers to a value reflecting the degree of detected signal in response to an incorporation of a nucleotide species at a single sequence position which should be substantially the same for each of the nucleotide species. Typically this the 1-mer value is easiest to calculate from detected signals obtained at the beginning of a sequencing run of a template nucleic acid molecule because the key element in an adaptor includes a single representative of each nucleotide species in a key element at a known position (i.e. a TCAG key element) and thus it is expected that only a single nucleotide of each species is incorporated at each of the four sequence positions.
The completion efficiency and carry forward values illustrated in Table 4 can be inferred using a three-stage minimization process for each individual sequence read. […]

[1] = Run 1, relative concentration TA 120%, CG 140%
[2] = Run 2, relative concentration TA 140%, CG 140%
[3] = Run 3, relative concentration TA 120%, CG 160%

| Km (apyrase) [µM] | VApy-dNTP (estimated apyrase activity) (apyrase) [μM/10 min] | Vmax (apyrase) [μM/10 min] | Apyrase activity ratio (apyrase) | Structure (SMILES) | average carry forward (polymerase and apyrase; [1]) | average completion efficiency (polymerase and apyrase; [1]) | average carry forward (polymerase and apyrase; [2]) | average completion efficiency (polymerase and apyrase; [2]) | average carry forward (polymerase and apyrase; [3]) | average completion efficiency (polymerase and apyrase; [3]) |
| --- | --- | --- | --- | --- | --- | --- | --- | --- | --- | --- |
| 76.5 | 31.7 | 250.0 | 1.0 | Nc1ccn([C@H]2C[C@H](O)[C@@H](COP(=O)(O)OP(=O)(O)OP(=O)(O)O)O2)c(=O)n1 [dCTP] | 0.0062 | 0.9988 | 0.0058 | 0.9986 | 0.0065 | 0.9991 |
| 8.1 | 51.2 | 47.4 | 1.6 | Nc1nc2c(ncn2[C@H]2C[C@H](O)[C@@H](COP(=O)(O)OP(=O)(O)OP(=O)(O)O)O2)c(=O)[nH]1 [dGTP] | 0.0048 | 0.9990 | 0.0075 | 0.9992 | 0.0057 | 0.9994 |
| 107 | 80.4 | 294.1 | 2.5 | Cc1cn([C@H]2C[C@H](O)[C@@H](COP(=O)(O)OP(=O)(O)OP(=O)(O)O)O2)c(=O)[nH]c1=O [dTTP] | 0.0006 | 0.9968 | 0.0013 | 0.9975 | 0.0008 | 0.9959 |

| Structure (SMILES) | Km (apyrase) [µM] | VApy-dNTP (estimated apyrase activity) (apyrase) [μM/10 min] | Vmax (apyrase) [μM/10 min] | Apyrase activity ratio (apyrase) | average carry forward (polymerase and apyrase; [1]) | average completion efficiency (polymerase and apyrase; [1]) | average carry forward (polymerase and apyrase; [2]) | average completion efficiency (polymerase and apyrase; [2]) | average carry forward (polymerase and apyrase; [3]) | average completion efficiency (polymerase and apyrase; [3]) |
| --- | --- | --- | --- | --- | --- | --- | --- | --- | --- | --- |
| Nc1ncnc2c1ncn2[C@H]1C[C@H](O)[C@@H](COP(O)(=S)OP(=O)(O)OP(=O)(O)O)O1 (stereo partly drawn) [α-thio-dATP] | 115 | 137.5 | 232.6 | 4.3 | 0.0035 | 0.9977 | 0.0033 | 0.9971 | 0.0043 | 0.9978 |
